Key:
[1] = target: T1, recombinant human ERG potassium channels (Homo sapiens, UniProt Q12809); experiment: Inhibition of the hERG K+ channel (whole-cell patch-clamp, CHO cells); assay type: cell-based; conditions: recombinant human ERG channels expressed in CHO cells; concentrations higher than 10 μM not tested; read-out: Inhibition of hERG K+ current IC50
T1 construct: expressed in transfected cells
Excerpt: (§1) Methods for Studying the Inhibition of the hERG K^+ Channel
(§2) CHO cells were stably transfected by a pcDNA3-hERG expression vector containing a SV40-neo cassette for selection. Cells were thinly plated into 35 mm dishes and used for the electrophysiological experiment ½-3 d later.
(§3) During the experiment the cells were continuously superfused with an extracellular saline containing (in mM): NaCl 150, KCl 10, MgCl2 1, CaCl2 3, HEPES 10 (pH=7.3 by addition of NaOH). A 10-mM stock solution of the test compound was made from pure DMSO. Test solution were made by at least 1000-fold dilution of the stock solution into the extracellular saline. The glass micropipettes for whole-cell patch-clamp recording were filled with a containing (in mM): KCl 110, BAPTA 10, HEPES 10, MgCl2 4.5, Na2ATP 4, Na2-phosphocreatine 20, creatine kinase 200 μg/ml (pH=7.3 by addition of KOH).
(§4) The whole-cell configuration of the patch-clamp technique was used for the experiments. Cells were clamped to −80 mV holding potential and repetitively (0.1 Hz) stimulated by a voltage pulse pattern consisting of a 1-s conditioning depolarisation to 20 mV immediately followed by a hyperpolarisation of 50 ms duration to −120 mV. The membrane current was recorded for at least 3 min (18 stimuli) before compound application (control), and then for another two 3-min intervals in presence of two different concentrations of the compound. The current amplitudes (Itest) at the end of each compound application interval were divided by the mean current amplitude (Icontrol) during the initial control period to calculate the percentage effect of the compound:
(§5) effect (%)=(1-Itest/Icontrol)·100.
(§6) Compound concentrations were chosen in decade steps (usually 1 and 10 μM) around the expected 50% inhibitory concentration (IC50). If after the first experiment the IC50 turned out to lie outside the range between the two chosen concentrations the concentrations were changed to bracket the IC50 in the following experiments. The compound was tested on at least three cells. Its IC50 was then estimated from the population of all percent-effect values by non-linear regression using the function […]). Concentrations higher than 10 μM were not tested.

hERG K+ channel = target: T2, hERG K+ channel (Homo sapiens, UniProt Q12809); experiment: as above; assay type: cell-based; conditions: CHO cells stably transfected with hERG (pcDNA3-hERG), pH 7.3; average effect at 10 μM; recombinant human ERG channels in CHO cells; read-out: Inhibition of hERG K+ current, effect (%) at 10 μM
T2 construct: expressed in transfected cells
T2 sequence (Q12809 whole entry): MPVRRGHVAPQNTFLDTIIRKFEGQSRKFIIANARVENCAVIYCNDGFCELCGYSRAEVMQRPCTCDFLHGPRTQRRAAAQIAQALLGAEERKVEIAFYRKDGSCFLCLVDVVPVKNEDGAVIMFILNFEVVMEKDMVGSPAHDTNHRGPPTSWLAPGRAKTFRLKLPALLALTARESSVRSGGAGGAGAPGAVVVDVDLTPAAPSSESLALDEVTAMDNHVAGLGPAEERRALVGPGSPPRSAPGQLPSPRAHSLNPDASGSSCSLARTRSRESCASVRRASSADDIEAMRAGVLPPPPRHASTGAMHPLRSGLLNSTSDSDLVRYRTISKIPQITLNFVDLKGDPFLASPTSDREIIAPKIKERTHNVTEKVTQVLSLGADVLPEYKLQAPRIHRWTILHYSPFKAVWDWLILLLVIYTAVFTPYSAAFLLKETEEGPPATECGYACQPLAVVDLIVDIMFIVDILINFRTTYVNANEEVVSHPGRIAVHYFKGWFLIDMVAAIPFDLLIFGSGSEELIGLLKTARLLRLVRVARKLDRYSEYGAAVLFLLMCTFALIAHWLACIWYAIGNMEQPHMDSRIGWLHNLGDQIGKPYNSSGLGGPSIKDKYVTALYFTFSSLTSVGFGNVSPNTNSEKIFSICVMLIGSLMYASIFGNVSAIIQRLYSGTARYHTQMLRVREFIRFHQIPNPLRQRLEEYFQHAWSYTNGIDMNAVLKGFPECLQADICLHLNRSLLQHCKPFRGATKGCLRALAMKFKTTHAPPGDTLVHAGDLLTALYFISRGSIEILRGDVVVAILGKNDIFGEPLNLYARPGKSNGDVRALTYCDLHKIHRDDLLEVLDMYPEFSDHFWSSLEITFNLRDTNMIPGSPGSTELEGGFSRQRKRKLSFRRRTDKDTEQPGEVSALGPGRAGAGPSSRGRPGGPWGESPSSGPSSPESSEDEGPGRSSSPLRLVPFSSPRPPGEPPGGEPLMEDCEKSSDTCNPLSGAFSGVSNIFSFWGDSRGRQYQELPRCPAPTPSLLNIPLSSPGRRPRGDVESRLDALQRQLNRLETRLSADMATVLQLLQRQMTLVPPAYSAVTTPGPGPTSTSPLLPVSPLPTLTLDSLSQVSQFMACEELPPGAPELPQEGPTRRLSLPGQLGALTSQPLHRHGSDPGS
Excerpt: as §1, §2, §3, §4, §5, §6

[2] = target: T3, NMDA NR2B subunit containing receptors (Rattus norvegicus, UniProt P35439+Q00960); experiment: [3H]-Ro 25-6981 binding; conditions: rat brain membranes; 5 nM 3H-Ro 25-6981; indicates affinity for NMDA NR2B subunit containing receptors; read-out: Inhibition of [3H]-Ro 25-6981 binding IC50
T3 construct: Membranes were prepared by homogenization of the whole brain minus cerebellum and medulla oblongata; from tissue; host or cells: rat whole brain minus cerebellum and medulla oblongata, membrane preparation
T3 sequence (Q00960 27-1482, other chains not shown): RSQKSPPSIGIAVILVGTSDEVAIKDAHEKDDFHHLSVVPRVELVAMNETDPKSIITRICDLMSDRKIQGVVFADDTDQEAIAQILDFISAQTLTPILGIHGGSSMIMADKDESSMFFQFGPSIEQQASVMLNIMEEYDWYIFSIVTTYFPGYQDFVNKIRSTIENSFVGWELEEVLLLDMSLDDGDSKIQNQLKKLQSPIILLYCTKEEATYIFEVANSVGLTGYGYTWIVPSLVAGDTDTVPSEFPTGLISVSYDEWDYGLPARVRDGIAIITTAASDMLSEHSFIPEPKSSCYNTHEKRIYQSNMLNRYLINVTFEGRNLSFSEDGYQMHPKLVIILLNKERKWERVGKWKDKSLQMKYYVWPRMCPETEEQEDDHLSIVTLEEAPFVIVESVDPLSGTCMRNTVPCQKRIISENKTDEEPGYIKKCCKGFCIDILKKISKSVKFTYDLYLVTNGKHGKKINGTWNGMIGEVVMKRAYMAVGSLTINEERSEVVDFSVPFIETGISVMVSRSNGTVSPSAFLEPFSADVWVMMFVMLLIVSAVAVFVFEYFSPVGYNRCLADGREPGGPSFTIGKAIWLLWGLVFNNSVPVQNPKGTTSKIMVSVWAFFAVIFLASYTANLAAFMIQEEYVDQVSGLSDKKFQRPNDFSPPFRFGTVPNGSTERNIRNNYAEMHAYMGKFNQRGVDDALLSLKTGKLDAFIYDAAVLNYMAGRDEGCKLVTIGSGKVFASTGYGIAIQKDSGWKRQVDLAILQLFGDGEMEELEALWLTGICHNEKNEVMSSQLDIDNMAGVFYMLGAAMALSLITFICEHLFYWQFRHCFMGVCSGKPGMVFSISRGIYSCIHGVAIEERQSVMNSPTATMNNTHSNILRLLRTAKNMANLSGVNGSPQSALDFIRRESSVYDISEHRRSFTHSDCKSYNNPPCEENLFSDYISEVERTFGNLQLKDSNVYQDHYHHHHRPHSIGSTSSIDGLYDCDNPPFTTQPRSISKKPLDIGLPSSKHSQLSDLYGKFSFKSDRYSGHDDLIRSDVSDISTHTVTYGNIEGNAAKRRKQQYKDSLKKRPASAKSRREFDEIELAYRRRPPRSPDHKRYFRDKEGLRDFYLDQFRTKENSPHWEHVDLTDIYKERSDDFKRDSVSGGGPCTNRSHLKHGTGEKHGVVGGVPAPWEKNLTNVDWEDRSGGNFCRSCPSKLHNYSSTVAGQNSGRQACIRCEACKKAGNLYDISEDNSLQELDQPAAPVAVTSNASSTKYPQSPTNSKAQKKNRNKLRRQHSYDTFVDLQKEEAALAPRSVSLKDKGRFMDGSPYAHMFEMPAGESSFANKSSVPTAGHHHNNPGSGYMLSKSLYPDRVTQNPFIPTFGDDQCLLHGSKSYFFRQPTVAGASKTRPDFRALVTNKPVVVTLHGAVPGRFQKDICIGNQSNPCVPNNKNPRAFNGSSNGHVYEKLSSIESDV
Protocol: 3H-Ro 25-6981 Binding(Ro 25-6981 is [R-(R*,S*)]-α-(4-Hydroxy-phenyl)-β-methyl-4-(phenyl-methyl)-1-piperidine propanol)
(§7) Male Füllinsdorf albino rats weighing between 150-200 g were used. Membranes were prepared by homogenization of the whole brain minus cerebellum and medulla oblongata with a Polytron (10,000 rpm, 30 seconds), in 25 volumes of a cold Tris-HCl 50 mM, EDTA 10 mM, pH 7.1 buffer. The homogenate was centrifuged at 48.000 g for 10 minutes at 4° C. The pellet was resuspended using the Polytron in the same volume of buffer and the homogenate was incubated at 37° C. for 10 minutes. After centrifugation the pellet was homogenized in the same buffer and frozen at −80° C. for at least 16 hours but not more than 10 days. For the binding assay the homogenate was thawed at 37° C., centrifuged and the pellet was washed three times as above in a Tris-HCl 5 mM, pH 7.4 cold buffer. The final pellet was resuspended in the same buffer and used at a final concentration of 200 μg of protein/ml.
[3H]-Ro 25-6981 binding experiments were performed using a Tris-HCl 50 mM, pH 7.4 buffer. For displacement experiments 5 nM of 3H-Ro 25-6981 were used and non specific binding was measured using 10 μM of tetrahydroisoquinoline and usually it accounts for 10% of the total. The incubation time was 2 hours at 4° C. and the assay was stopped by filtration on Whatman GF/B glass fiber filters (Unifilter-96, Packard, Zürich, Switzerland). The filters were washed 5 times with cold buffer. The radioactivity on the filter was counted on a Packard Top-count microplate scintillation counter after addition of […] of microscint 40 (Canberra Packard S.A., Zürich, Switzerland).
The effects of compounds were measured using a minimum of 8 concentrations and repeated at least once. The pooled normalized values were analyzed using a non-linear regression calculation program which provide IC50 with their relative upper and lower 95% confidence limits (RS1, BBN, USA).

α1-adrenergic receptors = experiment: [3H]-Prazosin binding; conditions: rat brain membranes; 0.2 nM 3H-Prazosine; indicates affinity for α1-adrenergic receptors; read-out: Inhibition of [3H]-Prazosin binding IC50
Protocol: as §7, with “a Plytron” for “a Polytron”, “[…]” for “200 μg”
3H-Prazosin binding experiments were performed using a Tris-HCl 50 mM, pH 7.4 buffer. For displacement experiments 0.2 nM of 3H-Prazosine were used and non specific binding was measured using […] of Chlorpromazine. The incubation time was 30 minutes at room temperature and the assay was stopped by filtration on Whatman GF/B glass fiber filters (Unifilter-96, Canberra Packard S.A., Zürich, Switzerland). The filters were washed 5 times with cold buffer. The radioactivity on the filter was counted on a Packard Top-count microplate scintillation counter after addition of […] of microscint 40 (Canberra Packard S.A., Zürich, Switzerland). The effects of compounds were measured using a minimum of 8 concentrations and repeated at least once. The pooled normalized values were analyzed using a non-linear regression calculation program which provide IC50 with their relative upper and lower 95% confidence limits (RS1, BBN, USA).

T1 sequence (Q12809 whole entry): as the sequence (Q12809 whole entry) above

| SMILES | IC50 [1] | inhibition at 3 min, 10 µM (hERG K+ channel) | IC50 [2] | IC50 (α1-adrenergic receptors) |
| --- | --- | --- | --- | --- |
| Oc1ccc(OCCN2CC[C@](O)(Cc3ccccc3)[C@H](O)C2)cc1 (racemic) [I (racemate), (3R,4R) and (3S,4S)-4-benzyl-1-[2-(4-hydroxy-phenoxy)-ethyl]-piperidine-3,4-diol] | > 10 µM | 45% | 0.045 µM | 27 µM |
| Cc1ccc(CC2(O)CCN(CCOc3ccc(O)cc3)CC2)cc1 [EP 824098, 1-[2-(4-hydroxy-phenoxy)-ethyl]-4-(4-methyl-benzyl)-piperidin-4-ol, reference compound] | 0.69 µM |  | 0.01 µM | 3.5 µM |
| Oc1ccc(OCCN2CC[C@](O)(Cc3ccccc3)[C@H](O)C2)cc1 [I-1 (R,R), (3R,4R)-4-benzyl-1-[2-(4-hydroxy-phenoxy)-ethyl]-piperidine-3,4-diol] | > 10 µM | 44% | 0.038 µM | 25 µM |
| Oc1ccc(OCCN2CC[C@@](O)(Cc3ccccc3)[C@@H](O)C2)cc1 [I-2 (S,S), (3S,4S)-4-benzyl-1-[2-(4-hydroxy-phenoxy)-ethyl]-piperidine-3,4-diol] | > 10 µM | 40% | 0.039 µM | 30 µM |
